Measured values as given in PubChem BioAssay AID2060347 (Molecular Pharmacology Branch, DTP, NCI, 2025).
pIC50: −log10 of the molar value. Several values for one entry are separate records, joined by “and”; a condition that tells them apart may be missing. Equal entries are not always repeated.

Test system: 817829-284-R-J1-PDC spheroids with HUVEC/MSC, viability
Assay: Anticancer human tumor 817829-284-R-J1-PDC patient-derived colon adenocarcinoma cell line growth inhibition [TAK]
Conditions: for viability, T/C: stronger effect = lower value; active = viability on the fitted dose curve at most 10% of control; inactive = the rest
Excerpt: Combinatorial screen of targeted agents with TAK-243 and ipatasertib in multi-cell type tumor spheroids
A high-throughput screen of multi-cell type tumor spheroids was designed to identify active combinations of targeted small molecules and TAK-243 or ipatasertib. Complex spheroids include a stromal component modeled by human endothelial cells (HUVEC) and fibroblasts modeled by human mesenchymal stem cells (MSCs). The concentration ranges selected for each drug and investigational agent were based upon clinically achievable concentrations if the clinical Cmax of the agent was known.
Compounds. The drugs and investigational agents: TAK-243 (785004), ipatasertib (767898), everolimus (733504), selumetinib (741078), bortezomib (756655), trametinib (758246), ixazomib (758254), vemurafenib (761431), dabrafenib (764134), sapanisertib (764658), alpelisib (765974), and copanlisib (816437), were obtained from the National Cancer Institute (NCI) Developmental Therapeutics Program Chemical Repository. The FDA-approved anticancer drug set is available from the NCI Developmental Therapeutics Program. […] The stock solutions were prepared in dimethyl sulfoxide (DMSO, Sigma-Aldrich, St. Louis, MO, cat. D2650) at 800-fold the tested concentration and stored at -70 degrees C prior to their use. All drugs and investigational agents were tested over a range starting from a high concentration at or near the clinical Cmax and decreasing in half-log increments. If the clinical Cmax for an agent had not been determined, the highest concentration tested was 10 microM.
NCI60 Cell Culture. NCI60 cell lines were obtained from the NCI Developmental Therapeutics Program Tumor Repository. For each lot of cells, the Repository performed Applied Biosystems AmpFLSTR Identifiler testing with PCR amplification to confirm consistency with the published Identifier STR profile for each cell line. Cells were kept in continuous culture for no more than 20 passages. The optimal seeding densities for each of the cell lines at each time point assessed were determined prior to performing the concentration response studies. Briefly, the NCI60 human tumor lines were grown as monolayers in RPMI 1640 medium supplemented with 10% FBS and 2 mmol/L L-glutamine.
An additional 2 lines were from the NCI60 cell line panel including melanomas, MALME-3M and SK-MEL-2. Pooled donor human umbilical vein endothelial cells (HUVEC, Lonza, cat. CC-2519) and human mesenchymal stem cells (hMSC, Lonza, cat. PT-2501) were purchased from Lonza (Walkersville, MD).
PDMR cell lines were grown in complete medium (DC medium): Dulbecco's modified Eagle's medium (DMEM)/F12 supplemented with 5% fetal bovine serum (FBS), 2 mM L-glutamine, 100 U/mL penicillin and 100 µg/ml streptomycin, 0.4 µg/ml hydrocortisone, 10 ng/ml epidermal growth factor (EGF) recombinant human protein, 24 µg/mL adenine, and 0.1 mg/mL primocin. During culture from frozen stock vials, PDMR cells were cultured in the same medium containing 10 µM Y-27632 (see Table 3). The PDCs were cultured in complete DMEM/F12 media without 10 microM Y-27632 dihydrochloride for at least two passages prior to the screen. The pooled donor HUVEC and hMSC were cultured in endothelial cell growth medium 2 (PromoCell, Heidelberg, Germany, cat. C-22011) and mesenchymal stem cell growth medium 2 (PromoCell, cat. C-28009), respectively. For all experiments, HUVEC and hMSC were used at passages </=5.
For the pre-screen, cell seeding densities were determined from a titration spanning the range from 5,000 to 313 cells per well. The mct-spheroids including 60% malignant cells, 25% HUVEC and 15% MSC dispensed as a mixture into U-bottom Ultra-Low Attachment 384-well plates (Corning, NY)
High-throughput Drug Combination Screening.
Prior to their inoculation into 384-well plates, malignant cells, HUVEC, and hMSC were removed from T flasks using TrypLE express (Thermo Fisher Scientific, cat. 12605036) and harvested by centrifugation for 5 min at 233 x g. […]

CC(C)CC(NC(=O)CNC(=O)c1cc(Cl)ccc1Cl)B1OC(=O)CC(CC(=O)O)(C(=O)O)O1 (configuration not stated)
inactive: viability, T/C (compound 0.000316 µM) 106% and 97.9% | viability, T/C (compound 0.001 µM) 107% and 100% | viability, T/C (compound 0.00316 µM) 111% and 99.2% | viability, T/C (compound 0.01 µM) 103% and 105%
3.63% and 22.3%: viability, T/C (compound 0.0316 µM)
active: viability, T/C (compound 0.1 µM) 0.47% and 0.3%
7.73 and 7.68: pIC50 (curve of compound)

CC(C)(C)c1nc(-c2cccc(NS(=O)(=O)c3c(F)cccc3F)c2F)c(-c2ccnc(N)n2)s1 + CC(C)NCC(C(=O)N1CCN(c2ncnc3c2C(C)CC3O)CC1)c1ccc(Cl)cc1
6.96: pIC50 (curve of first compound, second compound 0.3 µM)
> 7.50: pIC50 (curve of first compound, second compound 0.949 µM) | pIC50 (curve of first compound, second compound 3 µM) | pIC50 (curve of first compound, second compound 9.49 µM) | pIC50 (curve of first compound, second compound 30 µM)
active: viability, T/C (second compound 9.49 µM, first compound 0.0316 µM) 9.35% | viability, T/C (second compound 9.49 µM, first compound 0.1 µM) 10.3% | viability, T/C (second compound 9.49 µM, first compound 0.316 µM) 9.8% | viability, T/C (second compound 9.49 µM, first compound 1 µM) 7.09% | viability, T/C (second compound 9.49 µM, first compound 3.16 µM) 6.36% | viability, T/C (second compound 9.49 µM, first compound 10 µM) 9.46% | viability, T/C (second compound 30 µM, first compound 0.0316 µM) 5.5% | viability, T/C (second compound 30 µM, first compound 0.1 µM) 5.14% | viability, T/C (second compound 30 µM, first compound 0.316 µM) 5.38% | viability, T/C (second compound 30 µM, first compound 1 µM) 3.29% | viability, T/C (second compound 30 µM, first compound 3.16 µM) 3.24% | viability, T/C (second compound 30 µM, first compound 10 µM) 4.85%
inactive: viability, T/C (second compound 0.3 µM, first compound 0.0316 µM) 77.1% | viability, T/C (second compound 0.3 µM, first compound 0.1 µM) 52.1% | viability, T/C (second compound 0.3 µM, first compound 0.316 µM) 27.6% | viability, T/C (second compound 0.3 µM, first compound 1 µM) 18% | viability, T/C (second compound 0.3 µM, first compound 3.16 µM) 20% | viability, T/C (second compound 0.3 µM, first compound 10 µM) 40.6% | viability, T/C (second compound 0.949 µM, first compound 0.0316 µM) 27.6% | viability, T/C (second compound 0.949 µM, first compound 0.1 µM) 31.9% | viability, T/C (second compound 0.949 µM, first compound 0.316 µM) 22.4% | viability, T/C (second compound 0.949 µM, first compound 1 µM) 15.3% | viability, T/C (second compound 0.949 µM, first compound 3.16 µM) 15.6% | viability, T/C (second compound 0.949 µM, first compound 10 µM) 20.1% | viability, T/C (second compound 3 µM, first compound 0.0316 µM) 15.9% | viability, T/C (second compound 3 µM, first compound 0.1 µM) 16.9% | viability, T/C (second compound 3 µM, first compound 0.316 µM) 13.4% | viability, T/C (second compound 3 µM, first compound 1 µM) 11.1% | viability, T/C (second compound 3 µM, first compound 3.16 µM) 11% | viability, T/C (second compound 3 µM, first compound 10 µM) 13.7%
